Target: T1, ratTRPA1 (rTRPA1) (Rattus norvegicus, UniProt Q6RI86)
T1 construct: expressed in transfected cells
Assay: TRPA1 calcium imaging in CHO cells (AITC activation)
Assay type: cell-based
Settings: CHO cells expressing TRPA1, Fluo-4, AITC 160 μM
Procedure: TRPA1 is known to be responsible for inflammatory and neuropathic pain appearance; therefore, it can be considered as a potential biological target for the analgesic action of the studied pyrazolones. Therefore, we studied the effect of pyrazolone 6b, showing the maximum analgesic effect in the hot plate test at 1 h on the activation of the TRPA1 ion channel by allyl isothiocyanate (AITC). The cell line CHO (Chinese hamster ovary cell) stably expressing the TRPA1 channel was used for measurement. Activation by a specific agonist was measured by fluorescence spectroscopy using Fluo-4 dye by changing the level of intracellular calcium.
Testing for receptors ratTRPA1 (rTRPA1) and ratTRPV1 (rTRPV1), stably expressed in CHO cells, was carried out using the calcium imaging method as described in [123, 124]. Fluorescence was performed using NOVOstar (BMG LABTECH, Ortenberg, Germany). The tested substances in 26% DMSO solution or 26% DMSO solution alone (negative control) (5 μL) were added to the cells loaded with the cytoplasmic calcium indicator Fluo-4AM using Fluo-4 Direct™ Calcium Assay Kit (Thermo Fisher Scientific Inc., Waltham, MA, USA) (60 μL) and incubated 5–10 min. Final DMSO concentration was 2%. Changes in cell fluorescence (λex = 485 nm, λem = 520 nm) were monitored at 25 °C before and after the addition of relevant agonist. […]

T1 sequence (Q6RI86 whole entry): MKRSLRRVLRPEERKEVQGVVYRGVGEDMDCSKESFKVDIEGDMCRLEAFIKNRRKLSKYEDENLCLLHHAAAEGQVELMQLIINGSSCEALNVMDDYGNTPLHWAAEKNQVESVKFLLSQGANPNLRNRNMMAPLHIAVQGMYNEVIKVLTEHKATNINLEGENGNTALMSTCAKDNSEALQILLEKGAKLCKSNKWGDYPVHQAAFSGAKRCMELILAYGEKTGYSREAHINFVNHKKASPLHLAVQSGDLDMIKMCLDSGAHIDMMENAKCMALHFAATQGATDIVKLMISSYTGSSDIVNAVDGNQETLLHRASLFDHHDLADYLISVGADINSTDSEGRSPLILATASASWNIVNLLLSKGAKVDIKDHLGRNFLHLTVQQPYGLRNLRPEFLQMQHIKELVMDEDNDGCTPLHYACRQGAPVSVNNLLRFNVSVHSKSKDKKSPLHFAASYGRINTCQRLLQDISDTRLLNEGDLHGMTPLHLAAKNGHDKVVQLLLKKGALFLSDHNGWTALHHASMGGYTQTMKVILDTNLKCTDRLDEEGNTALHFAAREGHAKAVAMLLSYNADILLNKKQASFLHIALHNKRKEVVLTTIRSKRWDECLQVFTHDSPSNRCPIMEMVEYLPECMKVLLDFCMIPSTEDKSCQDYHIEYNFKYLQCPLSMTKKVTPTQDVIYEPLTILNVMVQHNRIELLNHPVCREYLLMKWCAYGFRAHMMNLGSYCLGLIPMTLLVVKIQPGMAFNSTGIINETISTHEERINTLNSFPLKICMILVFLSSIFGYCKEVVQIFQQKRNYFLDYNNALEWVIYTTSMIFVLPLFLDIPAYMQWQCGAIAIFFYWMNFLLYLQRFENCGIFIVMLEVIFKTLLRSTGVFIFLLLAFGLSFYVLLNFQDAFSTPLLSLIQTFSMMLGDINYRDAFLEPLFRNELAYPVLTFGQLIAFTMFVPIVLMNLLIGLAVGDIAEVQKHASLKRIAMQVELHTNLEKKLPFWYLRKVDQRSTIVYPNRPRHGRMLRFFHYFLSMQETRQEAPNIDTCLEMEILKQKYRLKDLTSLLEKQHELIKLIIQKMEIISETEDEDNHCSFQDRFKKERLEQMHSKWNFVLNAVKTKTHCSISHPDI

Compound: Cc1ccc(N/N=C2\C(=O)N(c3ccccc3)N=C2C(F)(F)C(F)(F)F)cc1 [6b, (4Z)-4-[2-(4-Methylphenyl)hydrazinylidene]-5-(pentafluoroethyl)-2-phenyl-2,4-dihydro-3H-pyrazol-3-one]
- effect on AITC-induced TRPA1 channel activation: no significant effect

— paper PMC9821843, “Powerful Potential of Polyfluoroalkyl-Containing 4-Arylhydrazinylidenepyrazol-3-ones for Pharmaceuticals” (Molecules, 2022)
